{"source": "patent US12186293B2", "about": "“Therapeutic methods using decanoic acid and amino acids” (Wintermute Biomedical, Inc., priority 2018, dated 2025)", "tested_on": "methicillin-resistant Staphylococcus aureus (MRSA)", "test": "In vitro bactericidal test on MRSA isolates (viable CFU/mL after 24 hours of treatment)", "details": "average across three MRSA isolates", "method": "Note that efficacy is reported in terms of the viable bacterial concentration (in CFU/mL) remaining after 24 hours of treatment with the drug product (in compliance with CLSI guidelines).\nIn this example, bacteria (MRSA isolates) are put onto fresh plates and allowed to grow for 30 hours. A suspension inoculum is made from the plates (e.g., a 1 McFarland solution in sterile water), from which the turbidity may be optically read. A standard inoculum may then be cultured in media and 100 μL of that solution combined with 100 μL of drug product and grown at various dilutions for 16-20 hrs. Duplicates may then be examined (e.g., following pelleting at 7,000 RPM for 15 min, resuspended in PBS and serial dilutions plated and grown for 24 hrs.). Duplicate plates at multiple dilutions may then be imaged and colonies counted.", "data": [{"smiles": "CCCCCCCCCCCCCCCCO", "note": "[CA, cetyl alcohol]", "values": [{"measurement": "effect of increasing amounts of CA in the UCA and LARG composition", "result": "decrease in efficacy"}]}]}
